What was measured:
HIV-1 protease = biological target: T1, HIV-1 protease (Human immunodeficiency virus type 1 group M subtype B, UniProt P04585); experiment: Protease inhibition assay (fluorometric method); format: biochemical
T1 construct: fluorometric HIV-1 protease assay; purchased Bachem
Protocol: Protease inhibition is evaluated using a fluorometric method. Enzyme (Bachem) is diluted to 116 μgm/ml in 50 mM NaOAC, 5 mM DTT, 2 mM EDTA, 10% glycerol (pH 5.0) and stored as 10 μl samples at -20° C., HIV protease substrates I (Molecular Probes) is diluted to a working concentration of 0.32 nmoles/μl. Enzyme (20 μl) and drug (20 μl) are added to each well of a microtiter plate as appropriate. Positive and negative control are evaluated in parallel. Fluorescence is quantitated on Labsystems Fluroskan II using 355 nm/460nm at 37° C. at time zero and at 30 minute intervals for 2 hours. In instances where autofluorescence precludes use of the fluorometric HIV-1 protease assay or confirmation of a result is required, an HPLC based protease assay can be employed.

HIV-1 cell line, CEMRF = experiment: Long term in vitro study, CEMRF cells, reverse transcriptase analysis; format: cell-based; design: Reverse transcriptase data: unit not given here
Protocol: A microtiter-based reveres transcriptase (RT) reaction is utilized (Buckheit et al (1991) AIDS Research and Human Retroviruses 7:295-302). Tritiated thymidine triphosphate (NEN)(TTP) is resuspended in distilled water at 5 Ci/ml. Poly rA and oligo dT are prepared as a stock solution which is kept at -20° C. The RT reaction buffer is prepared fresh on a daily basis and consists of 125 μl 1M EGTA, 125 μl water, 125 μl Triton X-100, 50 μl Tris (pH 7.4), 50 μl MDDT, and 40 μl 1M MgCl2. These three solutions are mixed together in a ratio of 1 part TTP, 2.5 parts poly rA:oligo dT, 2.5 parts reaction buffer and 4 parts distilled water. Ten microliters of this reaction mixture is placed in a round bottom microtiter place and 15 μl of virus containing supernatant is added and mixed. The plate is incubated at 37° C. and incubated for 60 minutes. Following reaction, the reaction volume is spotted onto filter mats, washed 6 times for 5 minutes each in a 5% sodium phosphate buffer, 2 times for 1 minute each in distilled water, 2 times for 1 minute each in 70% ethanol, and then dried. The dried filter mat is placed in a plastic sample bag, Betaplate scintillation fluid is added and the bag is heat sealed. Incorporated radioactivity is quantified utilizing a Wallac Microbeta scintillation counter.
Acute infection of most established human cell lines with HIV- I results in the eventual establishment of a constitutive virus-producing chronically infected cell line. The cells can be passaged for long periods of time in culture without loss of virus production. These cells may be utilized to evaluate the effects of anti-HIV compounds on syncytium formation or to evaluate the effects of anti-HIV compounds on levels of virus production from these cells. […] Each of the cells contains an integrated HIV genome or provirus. Chronically infected CEM, H9 and U937 cell lines have been prepared and cultured by Southern Research Institute, Frederick Md. and are available from them.
CEM-SS cells chronically infected with HIV isolate, for example SKI (CEM-SKI) are cultured in RPM1640 tissue culture medium supplemented with 10% fetal bovine serum and antibiotics. Selection is performed by culturing the cells in the presence of the compound to be tested in T25 flasks. CEM-SKI or other infected cells with no added drug are used as the control cells. Cells are allowed to grow to a density of approximately 1×10^6 cells/ml and are then passaged at a 1:10 dilution. After a period of time, usually one week intervals of drug treatment, cells are evaluated to determine if the inhibitory activity of the compound has been affected by treatment of the cells with either compounds. The drug concentration in the flask is then increased two-fold and the cells maintained as above.
The cell populations contain integrated copies of the HIV genome and constitutively produce HIV at relatively high levels or are latently infected and only produce virus after stimulation with phorbol esters, tumor necrosis factor or IL6(U1 and ACH2). Reductions in virus products were observed when quantifying supernatant reverse transcriptase activity,
Toxicity Values are measured by XTT and activity of the compound in the tests is measured by a Reverse Transcriptase analysis.
A long term in vitro study of 3-hexahydro-3-ethyl-1-methyl-2-oxo-1H-azepin-3-yl)phenyl ester of 4-chlorophenyl carbamic acid against an HIV-1 cell line, CEMRF, was conducted at three different levels. The results with CEMRF cells were reported at weekly intervals. CEMRF is a chronic HIV cell line.

With CCC1(c2cccc(OC(=O)Nc3ccc(Cl)cc3)c2)CCCCN(C)C1=O (stereo not shown) [(4-chlorophenyl)-carbamic acid, 3-(hexahydro-3-ethyl-1-methyl-2-oxo-1H-azepin-3-yl) 2 phenyl ester] the EC50 (HIV-1 protease) was > 249 µM, the “Protease inhibition, mean” value (HIV-1 protease; 0.1 nM) was 27.9 fluorometric units and the “Protease inhibition, sample 1” value (HIV-1 protease; 0.1 nM) was 24.7 fluorometric units. The “Protease inhibition, sample 2” value (HIV-1 protease; 0.1 nM) was 31.2 fluorometric units, the remaining activity at 0.0001 µM (HIV-1 protease; 0.1 nM, read-out: % ND control) was 98.2% and the “Protease inhibition, mean” value (HIV-1 protease; 1 nM) was 27.4 fluorometric units. The “Protease inhibition, sample 1” value (HIV-1 protease; 1 nM) was 27.4 fluorometric units, the “Protease inhibition, sample 2” value (HIV-1 protease; 1 nM) was 27.5 fluorometric units and the remaining activity at 0.001 µM (HIV-1 protease; 1 nM, read-out: % ND control) was 96.4%. For the same compound, the “Protease inhibition, mean” value (HIV-1 protease; 10 nM) was 26.8 fluorometric units, the “Protease inhibition, sample 1” value (HIV-1 protease; 10 nM) was 28.5 fluorometric units and the “Protease inhibition, sample 2” value (HIV-1 protease; 10 nM) was 25.1 fluorometric units. The remaining activity at 0.01 µM (HIV-1 protease; 10 nM, read-out: % ND control) was 94.2%, the “Protease inhibition, mean” value (HIV-1 protease; 100 nM) was 30.0 fluorometric units and the “Protease inhibition, sample 1” value (HIV-1 protease; 100 nM) was 29.3 fluorometric units. The “Protease inhibition, sample 2” value (HIV-1 protease; 100 nM) was 30.7 fluorometric units, the remaining activity at 0.1 µM (HIV-1 protease; 100 nM, read-out: % ND control) was 105% and the “activity as a protease inhibitor” value (HIV-1 protease; screened using a fluorometric method) was “did not show activity”. For the same compound, the Reverse transcriptase data (HIV-1 cell line, CEMRF; 7 μg/ml, Day 4) was 1942, the Reverse transcriptase data (HIV-1 cell line, CEMRF; 7 μg/ml, Day 11) was 1537 and the Reverse transcriptase data (HIV-1 cell line, CEMRF; 7 μg/ml, Day 18) was 1683. The Reverse transcriptase data (HIV-1 cell line, CEMRF; 7 μg/ml, Day 25) was 1624, the Reverse transcriptase data (HIV-1 cell line, CEMRF; 7 μg/ml, Day 32) was 1286 and the Reverse transcriptase data (HIV-1 cell line, CEMRF; 7 μg/ml, Day 39) was 1368. The Reverse transcriptase data (HIV-1 cell line, CEMRF; 7 μg/ml, Day 46) was 1588, the Reverse transcriptase data (HIV-1 cell line, CEMRF; 7 μg/ml, Day 53) was 1482 and the Reverse transcriptase data (HIV-1 cell line, CEMRF; 7 μg/ml, Day 60) was 1381. The Reverse transcriptase data (HIV-1 cell line, CEMRF; 7 μg/ml, Day 67) was 1231, the Reverse transcriptase data (HIV-1 cell line, CEMRF; 7 μg/ml, Day 71) was 1321 and the Reverse transcriptase data (HIV-1 cell line, CEMRF; 7 μg/ml, Day 74) was 1528. It also gave a Reverse transcriptase data (HIV-1 cell line, CEMRF; 7 μg/ml, Day 88) of 1454, a Reverse transcriptase data (HIV-1 cell line, CEMRF; 7 μg/ml, Day 95) of 1168 and a Reverse transcriptase data (HIV-1 cell line, CEMRF; 7 μg/ml, Day 102) of 1463. The Reverse transcriptase data (HIV-1 cell line, CEMRF; 7 μg/ml, Day 109) was 1440, the Reverse transcriptase data (HIV-1 cell line, CEMRF; 15 μg/ml, Day 4) was 1402 and the Reverse transcriptase data (HIV-1 cell line, CEMRF; 15 μg/ml, Day 11) was 1402. It also gave a Reverse transcriptase data (HIV-1 cell line, CEMRF; 15 μg/ml, Day 18) of 1281, a Reverse transcriptase data (HIV-1 cell line, CEMRF; 15 μg/ml, Day 25) of 1582 and a Reverse transcriptase data (HIV-1 cell line, CEMRF; 15 μg/ml, Day 32) of 1140. It also gave a Reverse transcriptase data (HIV-1 cell line, CEMRF; 15 μg/ml, Day 39) of 1028, a Reverse transcriptase data (HIV-1 cell line, CEMRF; 15 μg/ml, Day 46) of 1056 and a Reverse transcriptase data (HIV-1 cell line, CEMRF; 15 μg/ml, Day 53) of 1160. For the same compound, the Reverse transcriptase data (HIV-1 cell line, CEMRF; 15 μg/ml, Day 60) was 1056, the Reverse transcriptase data (HIV-1 cell line, CEMRF; 15 μg/ml, Day 67) was 1002 and the Reverse transcriptase data (HIV-1 cell line, CEMRF; 15 μg/ml, Day 71) was 1108. The Reverse transcriptase data (HIV-1 cell line, CEMRF; 15 μg/ml, Day 74) was 1201, the Reverse transcriptase data (HIV-1 cell line, CEMRF; 15 μg/ml, Day 88) was 1068 and the Reverse transcriptase data (HIV-1 cell line, CEMRF; 15 μg/ml, Day 95) was 1004. The Reverse transcriptase data (HIV-1 cell line, CEMRF; 15 μg/ml, Day 102) was 1165, the Reverse transcriptase data (HIV-1 cell line, CEMRF; 15 μg/ml, Day 109) was 1265 and the Reverse transcriptase data (HIV-1 cell line, CEMRF; 30 μg/ml, Day 4) was 650. For the same compound, the Reverse transcriptase data (HIV-1 cell line, CEMRF; 30 μg/ml, Day 11) was 463, the Reverse transcriptase data (HIV-1 cell line, CEMRF; 30 μg/ml, Day 18) was 221 and the Reverse transcriptase data (HIV-1 cell line, CEMRF; 30 μg/ml, Day 25) was 643. For the same compound, the Reverse transcriptase data (HIV-1 cell line, CEMRF; 30 μg/ml, Day 32) was 462, the Reverse transcriptase data (HIV-1 cell line, CEMRF; 30 μg/ml, Day 39) was 221 and the Reverse transcriptase data (HIV-1 cell line, CEMRF; 30 μg/ml, Day 46) was 149. It also gave a Reverse transcriptase data (HIV-1 cell line, CEMRF; 30 μg/ml, Day 53) of 281, a Reverse transcriptase data (HIV-1 cell line, CEMRF; 30 μg/ml, Day 60) of 248 and a Reverse transcriptase data (HIV-1 cell line, CEMRF; 30 μg/ml, Day 67) of 147. The Reverse transcriptase data (HIV-1 cell line, CEMRF; 30 μg/ml, Day 71) was 201, the Reverse transcriptase data (HIV-1 cell line, CEMRF; 30 μg/ml, Day 74) was 161 and the Reverse transcriptase data (HIV-1 cell line, CEMRF; 30 μg/ml, Day 88) was 249. The Reverse transcriptase data (HIV-1 cell line, CEMRF; 30 μg/ml, Day 95) was 176, the Reverse transcriptase data (HIV-1 cell line, CEMRF; 30 μg/ml, Day 102) was 197 and the Reverse transcriptase data (HIV-1 cell line, CEMRF; 30 μg/ml, Day 109) was 370. For the same compound, the “Reverse transcriptase data, continued test” value (HIV-1 cell line, CEMRF; run through 222 days) was “data remained consistent”.
